16 molecules from ChEMBL document CHEMBL1201862, “PubChem BioAssay data set” (2004) can be followed below.

For test [1], the target named is T1, Endoribonuclease toxin MazF (Escherichia coli K-12, UniProt P0AE70).
T1 sequence (P0AE70 whole entry): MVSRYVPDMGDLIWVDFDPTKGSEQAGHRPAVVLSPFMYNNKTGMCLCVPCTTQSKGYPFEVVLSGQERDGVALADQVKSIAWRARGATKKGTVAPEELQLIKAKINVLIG
Nature of the test: activation of MazEF endoribonuclease cleavage – biochemical, fluorescence, single-stranded RNA substrate, uHTS hits, dose response (AID 588481). Type of test: functional.

Test [2] addresses T2, RNA-binding protein pos-1 (Caenorhabditis elegans, UniProt G5EF15).
T2 sequence (G5EF15 whole entry): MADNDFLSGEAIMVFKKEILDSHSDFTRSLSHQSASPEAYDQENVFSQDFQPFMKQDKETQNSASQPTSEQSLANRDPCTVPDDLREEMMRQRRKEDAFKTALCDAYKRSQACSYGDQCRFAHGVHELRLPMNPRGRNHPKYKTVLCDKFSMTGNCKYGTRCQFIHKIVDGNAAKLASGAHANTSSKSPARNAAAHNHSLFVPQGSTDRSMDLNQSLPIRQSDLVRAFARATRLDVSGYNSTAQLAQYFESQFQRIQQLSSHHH
The test is described as follows: disruptors of C. elegans POS-1 RNA interaction – biochemical, fluorescence polarization, dose response (AID 1964).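 Further: purified POS-1 fused to maltose binding protein made in E. coli; potency of compounds blocking POS-1 binding to fluorescent RNA.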

The target in test [3] is T1, Endoribonuclease toxin MazF. Nature of the test: substrate-only fluorescence increase artefacts – biochemical, single-stranded RNase substrate, counter-screen for MazEF activator project, dose response (AID 588502). Format: functional.
Test [4] deals with T3, Zinc finger protein mex-5 (Caenorhabditis elegans, UniProt Q9XUB2).
T3 sequence (Q9XUB2 whole entry): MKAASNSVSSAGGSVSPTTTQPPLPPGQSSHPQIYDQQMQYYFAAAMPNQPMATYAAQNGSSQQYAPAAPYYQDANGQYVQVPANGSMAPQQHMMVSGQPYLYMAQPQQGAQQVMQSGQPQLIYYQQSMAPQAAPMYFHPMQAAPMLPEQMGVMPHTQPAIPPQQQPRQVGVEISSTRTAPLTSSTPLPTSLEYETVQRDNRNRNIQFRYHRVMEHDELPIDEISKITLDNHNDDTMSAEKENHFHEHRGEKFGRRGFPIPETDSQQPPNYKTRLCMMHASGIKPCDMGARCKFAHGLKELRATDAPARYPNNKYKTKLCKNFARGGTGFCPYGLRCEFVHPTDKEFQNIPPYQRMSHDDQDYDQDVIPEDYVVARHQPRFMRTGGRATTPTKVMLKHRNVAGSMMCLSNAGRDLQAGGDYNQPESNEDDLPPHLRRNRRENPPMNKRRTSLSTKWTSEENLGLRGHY
The test is described as follows: potency of MEX-5 RNA-binding blockers – biochemical, C. elegans, fluorescence polarization, dose response (AID 1960).

Test [5] addresses T4, Sentrin-specific protease 8 (Homo sapiens, UniProt Q96LD8).
T4 sequence (Q96LD8 whole entry): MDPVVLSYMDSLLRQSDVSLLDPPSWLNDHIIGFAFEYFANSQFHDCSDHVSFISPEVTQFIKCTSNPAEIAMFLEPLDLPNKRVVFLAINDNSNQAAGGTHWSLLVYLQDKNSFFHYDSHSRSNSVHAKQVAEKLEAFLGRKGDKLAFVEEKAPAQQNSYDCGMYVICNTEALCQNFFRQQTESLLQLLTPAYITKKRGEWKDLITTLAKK
Nature of the test: inhibition of human SENP8 cleavage activity – biochemical, luminescence, SAR follow-up (AID 504501). Format: functional.

The target in test [6] is T5, Sentrin-specific protease 7 (Homo sapiens, UniProt Q9BQF6).
T5 sequence (Q9BQF6 whole entry): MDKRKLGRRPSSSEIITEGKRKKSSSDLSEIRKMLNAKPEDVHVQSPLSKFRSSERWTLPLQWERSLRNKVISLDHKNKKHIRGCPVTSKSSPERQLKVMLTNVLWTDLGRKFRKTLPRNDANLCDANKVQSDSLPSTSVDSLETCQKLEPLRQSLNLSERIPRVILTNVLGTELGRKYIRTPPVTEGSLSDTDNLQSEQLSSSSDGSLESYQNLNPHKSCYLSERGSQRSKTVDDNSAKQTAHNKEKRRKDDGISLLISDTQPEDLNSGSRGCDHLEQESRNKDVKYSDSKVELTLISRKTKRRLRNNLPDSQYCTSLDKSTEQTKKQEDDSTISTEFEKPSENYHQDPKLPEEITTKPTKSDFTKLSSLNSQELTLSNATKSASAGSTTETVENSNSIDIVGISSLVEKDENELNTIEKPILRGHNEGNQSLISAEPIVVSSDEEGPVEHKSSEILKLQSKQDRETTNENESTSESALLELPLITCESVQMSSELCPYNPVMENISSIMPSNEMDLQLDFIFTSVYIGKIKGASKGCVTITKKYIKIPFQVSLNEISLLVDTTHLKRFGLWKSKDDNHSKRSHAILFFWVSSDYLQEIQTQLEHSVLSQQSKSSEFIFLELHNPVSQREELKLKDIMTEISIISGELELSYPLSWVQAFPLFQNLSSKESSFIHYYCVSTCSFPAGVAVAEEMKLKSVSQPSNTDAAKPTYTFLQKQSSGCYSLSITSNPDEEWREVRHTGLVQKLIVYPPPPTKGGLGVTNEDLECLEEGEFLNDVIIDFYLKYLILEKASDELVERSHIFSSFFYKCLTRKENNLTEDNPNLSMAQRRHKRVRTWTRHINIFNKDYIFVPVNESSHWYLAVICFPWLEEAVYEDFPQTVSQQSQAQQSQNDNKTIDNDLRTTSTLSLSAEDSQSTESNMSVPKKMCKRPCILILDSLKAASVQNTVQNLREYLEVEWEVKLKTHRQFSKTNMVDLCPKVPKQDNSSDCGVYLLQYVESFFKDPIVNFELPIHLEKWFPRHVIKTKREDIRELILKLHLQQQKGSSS
Nature of the test: inhibition of human SENP7 cleavage activity – biochemical, luminescence, SAR follow-up (AID 504497). Format: functional.

Test [7] addresses T6, Sentrin-specific protease 6 (Homo sapiens, UniProt Q9GZR1).
T6 sequence (Q9GZR1 whole entry): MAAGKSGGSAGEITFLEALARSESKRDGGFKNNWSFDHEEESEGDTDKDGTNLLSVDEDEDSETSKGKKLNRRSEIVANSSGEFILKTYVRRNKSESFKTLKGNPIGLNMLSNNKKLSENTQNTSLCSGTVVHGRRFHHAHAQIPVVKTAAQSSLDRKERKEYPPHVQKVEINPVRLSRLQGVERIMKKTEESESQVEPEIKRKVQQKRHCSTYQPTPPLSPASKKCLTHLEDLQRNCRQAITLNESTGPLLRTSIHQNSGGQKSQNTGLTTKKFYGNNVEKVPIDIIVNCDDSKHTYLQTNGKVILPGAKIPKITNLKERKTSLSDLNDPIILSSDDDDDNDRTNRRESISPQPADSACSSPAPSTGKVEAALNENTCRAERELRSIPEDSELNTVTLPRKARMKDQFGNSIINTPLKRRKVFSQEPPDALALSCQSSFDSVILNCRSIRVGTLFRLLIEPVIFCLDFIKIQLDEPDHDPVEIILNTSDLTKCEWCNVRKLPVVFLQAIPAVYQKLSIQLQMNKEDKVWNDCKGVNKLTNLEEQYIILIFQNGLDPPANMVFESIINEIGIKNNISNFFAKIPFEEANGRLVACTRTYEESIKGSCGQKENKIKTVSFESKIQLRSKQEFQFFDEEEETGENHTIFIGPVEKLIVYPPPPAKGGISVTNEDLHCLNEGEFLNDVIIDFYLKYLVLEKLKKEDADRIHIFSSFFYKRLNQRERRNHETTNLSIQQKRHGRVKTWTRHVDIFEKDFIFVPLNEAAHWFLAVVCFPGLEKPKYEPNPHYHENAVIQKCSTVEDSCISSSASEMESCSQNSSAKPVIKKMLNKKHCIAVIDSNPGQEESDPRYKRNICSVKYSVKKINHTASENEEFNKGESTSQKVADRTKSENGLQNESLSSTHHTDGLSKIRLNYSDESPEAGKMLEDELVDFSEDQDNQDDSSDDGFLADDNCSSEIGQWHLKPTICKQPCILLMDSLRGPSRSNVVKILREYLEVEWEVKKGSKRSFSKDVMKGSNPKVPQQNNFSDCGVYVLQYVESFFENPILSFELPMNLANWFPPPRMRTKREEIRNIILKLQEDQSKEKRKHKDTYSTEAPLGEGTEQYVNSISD
Nature of the test: SAR Analysis of small molecule inhibitors of Sentrin-specific protease 6 (SENP6) using a Luminescent assay. [Related pubchem assays (depositor defined):AID2582, AID2599]. Type of test: functional.

A further test addresses T7, Caspase-3 (Homo sapiens, UniProt P42574).
T7 sequence (P42574 whole entry): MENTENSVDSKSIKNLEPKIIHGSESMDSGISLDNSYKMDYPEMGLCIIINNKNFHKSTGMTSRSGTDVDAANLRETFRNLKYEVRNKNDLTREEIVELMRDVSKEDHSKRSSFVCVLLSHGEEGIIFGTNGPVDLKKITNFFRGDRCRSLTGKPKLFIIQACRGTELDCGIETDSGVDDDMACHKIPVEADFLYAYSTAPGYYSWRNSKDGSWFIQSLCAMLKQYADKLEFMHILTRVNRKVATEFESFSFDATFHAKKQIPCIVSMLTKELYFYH
The test is described as follows: SAR Analysis of small molecule inhibitors of Sentrin-specific proteases (SENPs) using a Caspase-3 Selectivity assay. [Related pubchem assays (depositor defined):AID2540, AID2599, AID434973, AID489001]. Format: functional.

The test system of another test is SN12K1. Nature of the test: cells. Format: functional. To be noted: Homo sapiens, SN12K1.
The next test relates to P388. Nature of the test: cells. To be noted: Mus musculus. Format: functional.
A further test has as its system P388/ADR. The test is described as follows: cells. Format: functional. To be noted: Mus musculus.
The nature of test [8]: activation of miR-122 Renilla sensor silencing – cell-based, Huh7 psiCHECK-miR122, Renilla luciferase, cherry-picked, dose response (AID 651956).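 Further: huh7 hepatoma cells stably carrying a psiCHECK-2 miR-122 sensor plasmid; renilla luciferase signal reporting endogenous miR-122 activity after 48 h compound exposure.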 Format: functional.
Test [9] in a line: intracellular Trypanosoma cruzi inhibitors in host cells – cell-based, plate reader, cherry-pick samples, set 3, dose response (AID 651818).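 Further: compounds incubated with infected cells for about four days.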 Format: functional.

The source made the active and inactive calls.

Take `CCOc1cccc(C2C(C(=O)c3ccc(C)o3)=C(O)C(=O)N2c2nccs2)c1` (configuration not stated): the EC50 in test [1] is 16.9 µM (active); in [2], 1.41 µM (inconclusive); in test [3] it was > 99 µM (inactive); in test [4], 1.27 µM (active).

Regarding `COc1ccc(C(=O)NN=c2c(=O)c3ccccc3c2=O)cc1`, the IC50 was > 99 µM (inactive) in [5], > 99 µM (inactive) in test [6], 4.15 µM (active) in test [7] and > 99 µM (inactive) at Caspase-3.

For `Fc1ccc(N/N=C/c2c[nH]c3ccccc23)cc1`, the IC50 was 45.2 µM (active) in test [5], 27.2 µM (active) in test [6], 42.2 µM (active) in test [7] and > 99 µM (inactive) at Caspase-3.

Turning to `O=C(O)CCN1C(=O)/C(=C/c2cccc(OCC(=O)Nc3ccc(Cl)cc3)c2)SC1=S`, the IC50 was 92.8 µM (active) in test [5], 78.2 µM (active) in test [6], 62.1 µM (active) in test [7] and > 99 µM (inactive) on Caspase-3.

Take `O=C(Nc1ccc(F)cc1)c1ccc2c(c1)OCO2`: the 50% inhibitory concentration (IC50) is 8.03 µM (active) in test [5], 2.75 µM (active) in test [6], 7.53 µM (active) in test [7] and 1.92 µM (active) on Caspase-3.

As for `O=C1ON(Cc2ccccc2)C(c2ccccc2)N1c1ccccc1` (configuration not stated), the results for the GI50 in the test on SN12K1, in the test with P388 and in the test on P388/ADR were > 100 µM (inactive), 7.45 µM (inactive) and 54 µM (inactive), respectively.

For the molecule `O=NN1C(c2ccccc2)CCCC1c1ccccc1` (configuration not stated), the GI50 with SN12K1 is > 63.5 µM (inactive); in the test with P388 it was 27.5 µM (inactive); in the test with P388/ADR, 31.8 µM (inactive).

On to `CCCCNC(=O)/C(C#N)=c1\s/c(=C\c2ccccc2OC(F)F)c(=O)n1CCCOC`, for which the figures for the EC50 in test [1] and in [3] were > 99 µM (inactive) and 88.5 µM (inactive), respectively.

Turning to `COC(=O)c1ccc(/N=N/N(C)COc2ccc([N+](=O)[O-])cc2)cc1`, the GI50 is 40.2 µM (inactive) in the test on SN12K1, 37.7 µM (inactive) with P388 and 23.6 µM (inactive) in the test with P388/ADR.

For the molecule `CN(C)c1ccc(/C=N/NC(=O)c2cnc3ccccc3c2)cc1`, the values for the EC50 in test [1] and in test [3] were > 99 µM (inactive) and 26.4 µM (inactive), respectively.

For the molecule `COC1=C(C)C(=O)C2=C(C1=O)C1C3CC4=C(C(=O)C(OC)=C(C)C4=O)C(CNC(=O)C(C)O)N3C(C#N)C(C2)N1C` (configuration not stated), the concentration for 50% growth inhibition (GI50) is < 0.01 µM (active) with SN12K1, < 0.01 µM (active) in the test with P388 and 0.203 µM (active) in the test with P388/ADR.

On to `O=S(=O)(O)c1ccc(/N=N\c2ccc(/N=N/c3ccc(/C=C/c4ccc(/N=[N+](\[O-])c5ccc(/C=C/c6ccc(/N=N/c7ccc(/N=N/c8ccc(S(=O)(=O)O)cc8)c8ccccc78)cc6S(=O)(=O)O)c(S(=O)(=O)O)c5)cc4S(=O)(=O)O)c(S(=O)(=O)O)c3)c3ccccc23)cc1`, for which the GI50 with SN12K1 and in the test on P388 was > 100 µM (inactive) throughout.

In the case of `C/C=C/c1ccc([C@@H]2[C@@H](CO)N(C(=O)Cc3cccnc3)[C@H]2CNC(C)=O)cc1`, the half-maximal activity concentration (AC50) in [8] is 28.6 µM (active).

`C[C@@H]1CN([C@@H](C)CO)C(=O)c2cccc(NC(=O)Nc3ccc(C(F)(F)F)cc3)c2O[C@H]1CN(C)Cc1ccc(Cl)c(Cl)c1`: the AC50 in [9] was 0.919 µM (active).

`C[C@@H]1CN([C@H](C)CO)C(=O)Cc2cc(NC(=O)Cc3cn(C)c4ccccc34)ccc2O[C@@H]1CN(C)Cc1ccc(Cl)c(Cl)c1`: the half-maximal activity concentration (AC50) in test [9] is 5.18 µM (active).

For the molecule `C[C@H](CO)N1C[C@H](C)[C@H](CN(C)CC2CCCCC2)Oc2ccc(NC(=O)Nc3ccc(C(F)(F)F)cc3)cc2CC1=O`, the AC50 in test [9] was 2.72 µM (active).
